Measured values taken from patent US11814367B2, “Inhibitors of glycogen synthase 1 (GYS1) and methods of use thereof” (Maze Therapeutics, Inc., priority 2021, dated 2023).

What was measured:
[1] = target: hGYS1 enzyme (recombinant hGYS1/GN1 protein) (Homo sapiens (Human), UniProt P13807); assay: GYS1 coupled enzyme assay (PK/LDH); type: biochemical; details: hGYS1/GN1 50 nM, UDP-Glucose 0.8 mM, G6P 1 mM; geometric mean of at least 2 runs
[2] = system: hGYS1 enzyme / glycogen synthesis in HeLa cells; assay: GYS1 cell based assay (glycogen synthesis, Glucose-glo); parameters: species or system human; details: Homo sapiens, HeLa, 24 h, 24 h incubation, 20 mM glucose, geometric mean of at least 2 runs
Summary of the method: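 HeLa cells starved 24 h in medium containing only 1× Glutamax were plated onto compound in medium with 20 mM glucose (1% DMSO final) for 24 h, 37 °C, 5% CO2. Acid lysates were Tris-quenched, glucoamylase-digested (pH 5.3, 1 h, 37 °C) and read by Glucose-glo luminescence. IC50 came from Hill fits, as geometric mean of ≥2 runs.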

[3] = target: hGYS2 enzyme (recombinant hGYS2/GN1 protein) (Homo sapiens (Human), UniProt P54840); assay: GYS2 coupled enzyme assay (PK/LDH); type: biochemical; details: geometric mean of at least 2 assay runs on separate days, read-out: Avg_IC50
Summary of the method: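 hGYS2/GN1 200 nM; UDP-Glc 2 mM; glycogen 0.2%; G6P 2 mM; PEP 2 mM, NADH 0.6 mM, PK/LDH 20 U/mL. 50 mM Tris pH 7.5, MgCl2, KCl, BSA, TCEP, 2.5% DMSO. Kinetic A340, 10 min. IC50 = geomean of ≥2 runs.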

hGYS1 enzyme (recombinant hGYS1/GN1 protein), sequence (P13807 whole entry): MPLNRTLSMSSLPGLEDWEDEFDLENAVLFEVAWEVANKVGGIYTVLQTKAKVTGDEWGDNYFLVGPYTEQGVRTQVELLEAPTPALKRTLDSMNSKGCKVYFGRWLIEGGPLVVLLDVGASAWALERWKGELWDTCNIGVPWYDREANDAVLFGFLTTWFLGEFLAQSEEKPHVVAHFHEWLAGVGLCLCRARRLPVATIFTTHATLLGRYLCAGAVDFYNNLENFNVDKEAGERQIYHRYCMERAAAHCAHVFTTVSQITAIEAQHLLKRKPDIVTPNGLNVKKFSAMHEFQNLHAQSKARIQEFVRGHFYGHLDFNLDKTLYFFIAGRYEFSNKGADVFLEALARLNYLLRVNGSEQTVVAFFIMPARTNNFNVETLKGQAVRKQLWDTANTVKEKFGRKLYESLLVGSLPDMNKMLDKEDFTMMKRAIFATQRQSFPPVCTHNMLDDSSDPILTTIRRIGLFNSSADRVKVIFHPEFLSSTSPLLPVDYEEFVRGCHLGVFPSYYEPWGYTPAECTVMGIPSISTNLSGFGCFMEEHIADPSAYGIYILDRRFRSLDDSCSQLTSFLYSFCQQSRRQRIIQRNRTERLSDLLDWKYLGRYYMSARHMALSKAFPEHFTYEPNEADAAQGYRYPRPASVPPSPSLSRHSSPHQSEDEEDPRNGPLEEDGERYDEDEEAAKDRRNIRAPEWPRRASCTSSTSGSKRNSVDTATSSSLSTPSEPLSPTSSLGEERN
hGYS1 enzyme (recombinant hGYS1/GN1 protein), sequence (P46976 whole entry partner): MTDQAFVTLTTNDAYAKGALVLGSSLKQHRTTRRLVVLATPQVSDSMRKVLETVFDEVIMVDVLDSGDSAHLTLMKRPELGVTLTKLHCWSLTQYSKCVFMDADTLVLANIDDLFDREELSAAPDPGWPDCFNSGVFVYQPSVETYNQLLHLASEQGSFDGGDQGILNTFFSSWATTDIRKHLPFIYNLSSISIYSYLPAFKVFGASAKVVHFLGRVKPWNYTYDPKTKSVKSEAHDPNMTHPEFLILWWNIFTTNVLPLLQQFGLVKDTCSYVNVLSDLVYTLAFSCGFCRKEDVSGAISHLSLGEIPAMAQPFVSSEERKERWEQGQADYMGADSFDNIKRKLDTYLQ
hGYS2 enzyme (recombinant hGYS2/GN1 protein), sequence (P54840 whole entry): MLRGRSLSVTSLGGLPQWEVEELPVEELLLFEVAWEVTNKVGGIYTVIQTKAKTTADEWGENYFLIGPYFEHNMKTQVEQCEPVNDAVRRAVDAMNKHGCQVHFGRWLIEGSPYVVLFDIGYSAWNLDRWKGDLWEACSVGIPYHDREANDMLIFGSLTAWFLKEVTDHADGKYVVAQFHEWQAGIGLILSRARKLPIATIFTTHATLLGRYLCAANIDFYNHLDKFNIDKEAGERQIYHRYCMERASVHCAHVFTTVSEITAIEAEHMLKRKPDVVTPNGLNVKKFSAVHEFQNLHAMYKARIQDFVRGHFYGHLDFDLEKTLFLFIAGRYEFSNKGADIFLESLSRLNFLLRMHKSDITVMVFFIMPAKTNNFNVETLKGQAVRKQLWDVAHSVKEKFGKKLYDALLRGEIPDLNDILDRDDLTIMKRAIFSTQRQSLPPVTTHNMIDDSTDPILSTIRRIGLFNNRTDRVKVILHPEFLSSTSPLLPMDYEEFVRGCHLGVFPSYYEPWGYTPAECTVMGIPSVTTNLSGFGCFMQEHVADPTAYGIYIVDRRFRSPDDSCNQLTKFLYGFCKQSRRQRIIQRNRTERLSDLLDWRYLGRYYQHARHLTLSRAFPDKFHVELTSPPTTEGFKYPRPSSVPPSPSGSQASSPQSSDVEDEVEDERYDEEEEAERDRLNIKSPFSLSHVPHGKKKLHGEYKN
hGYS2 enzyme (recombinant hGYS2/GN1 protein), sequence (P46976 whole entry partner): as the sequence (P46976 whole entry partner) above

IC50 [1]	IC50 [2]	IC50 [3]	Compound
9 nM	280 nM	> 100000 nM	CC(C)c1ccc([C@@H](NC(=O)[C@@H]2C[C@@H](F)CN2C(=O)CCn2nc3ccccn3c2=O)c2ccccc2)nc1F [Compound 780, (2S,4R)-4-fluoro-N-[(S)-[6-fluoro-5-(propan-2-yl)pyridin-2-yl](phenyl)methyl]-1-{3-{3-oxo-2H,3H-[1,2,4]triazolo[4,3-a]pyridin-2-yl}propanoyl)pyrrolidine-2-carboxamide]
343 nM	3880 nM	> 100000 nM	CC(C)c1ccc([C@@H](NC(=O)[C@@H]2C[C@@H](F)CN2C(=O)Cc2[nH]nnc2N2CCOCC2)c2ccccc2)cc1F [Compound 371, (2S,4R)-4-fluoro-N-[(S)-[3-fluoro-4-(propan-2-yl)phenyl](phenyl)methyl]-1-{2-[4-(morpholin-4-yl)-1H-1,2,3-triazol-5-yl]acetyl}pyrrolidine-2-carboxamide]
5 nM	110 nM	> 100000 nM	Cc1cn(CC(=O)N2C[C@H](F)C[C@H]2C(=O)N[C@@H](c2ccccc2)c2ccc(C(C)C)c(F)c2)c(=O)[nH]c1=O [Compound 352, (2S,4R)-4-fluoro-N-[(S)-[3-fluoro-4-(propan-2-yl)phenyl](phenyl)methyl]-1-[2-(5-methyl-2,4-dioxo-1,2,3,4-tetrahydropyrimidin-1-yl)acetyl]pyrrolidine-2-carboxamide]
82 nM	1220 nM	> 100000 nM	CC1(c2ccc([C@@H](NC(=O)[C@@H]3C[C@@H](F)CN3C(=O)Cn3c(=O)[nH]c4ccccc43)c3ccccc3)cc2F)CC1 [Compound 570, (2S,4R)-4-fluoro-N-[(S)-[3-fluoro-4-(1-methylcyclopropyl)phenyl](phenyl)methyl]-1-[2-(2-oxo-2,3-dihydro-1H-1,3-benzodiazol-1-yl)acetyl]pyrrolidine-2-carboxamide]

Second part, the compound before the results:

Compound	IC50 [1]	IC50 [2]	IC50 [3]
Cc1ccc2c(CC(=O)N3C[C@H](F)C[C@H]3C(=O)N[C@@H](c3ccccc3)c3ccc(C(C)C)c(F)n3)cccc2n1 [Compound 387, (2S,4R)-4-fluoro-N-[(S)-[6-fluoro-5-(propan-2-yl)pyridin-2-yl](phenyl)methyl]-1-[2-(2-methylquinolin-5-yl)acetyl]pyrrolidine-2-carboxamide]	5 nM	30 nM	36200 nM
O=C(N[C@@H](c1ccccc1)c1ccc(C2CC2)c(F)n1)[C@@H]1C[C@@H](F)CN1C(=O)Cn1cnnc1 [Compound 296, (2S,4R)-N-[(S)-(5-cyclopropyl-6-fluoropyridin-2-yl)(phenyl)methyl]-4-fluoro-1-[2-(4H-1,2,4-triazol-4-yl)acetyl]pyrrolidine-2-carboxamide]	87 nM	4440 nM	> 100000 nM
Cc1nn(CC(=O)N2C[C@H](F)C[C@H]2C(=O)N[C@@H](c2ccccc2)c2ccc(C3CC(F)(F)C3)c(F)n2)c(=O)o1 [Compound 502, (2S,4R)-N-[(S)-[5-(3,3-difluorocyclobutyl)-6-fluoropyridin-2-yl](phenyl)methyl]-4-fluoro-1-[2-(5-methyl-2-oxo-2,3-dihydro-1,3,4-oxadiazol-3-yl)acetyl]pyrrolidine-2-carboxamide]	10 nM	170 nM	> 100000 nM
CC(C)c1ccc([C@@H](NC(=O)[C@@H]2C[C@@H](F)CN2C(=O)CNC(=O)N2CCN(CC(F)(F)F)CC2)c2ccccc2)nc1 [Compound 281, N-{2-[(2S,4R)-4-fluoro-2-{[(S)-phenyl[5-(propan-2-yl)pyridin-2-yl]methyl]carbamoyl}pyrrolidin-1-yl]-2-oxoethyl}-4-(2,2,2-trifluoroethyl)piperazine-1-carboxamide]	59 nM	1560 nM	> 100000 nM
CC(C)c1ccc([C@@H](NC(=O)[C@@H]2C[C@@H](F)CN2C(=O)Cn2nnc(C(F)(F)F)n2)c2ccccc2)nc1 [Compound 255, (2S,4R)-4-fluoro-N-[(S)-phenyl[5-(propan-2-yl)pyridin-2-yl]methyl]-1-{2-[5-(trifluoromethyl)-2H-1,2,3,4-tetrazol-2-yl]acetyl}pyrrolidine-2-carboxamide]	88 nM	1010 nM	> 100000 nM
